Source: patent US10729738B2, “Hindered disulfide drug conjugates” (priority 2015, dated 2020)
Where a SMILES comes first, the peptide text is derived from it. [ ]: non-standard residue; d: D form. The star is where a group is joined. X14 = CC(C)(COC(=O)*)SSc1nc2cc([N+](=O)[O-])ccc2[nH]1; X6 = CC(C)(COC(=O)*)SSc1nc2c([N+](=O)[O-])cccc2[nH]1; Dolaproine = CO[C@@H]([C@@H]1CCCN1)[C@@H](C)C(=O)O; X11 = CC(C)(COC(=O)*)SSc1nc2ccc(C(=O)O)cc2[nH]1; X22 = CC(C)(COC(=O)*)SSc1nc2cccc(C(=O)O)c2[nH]1; X3 = CC(C)(COC(=O)*)SSc1ccc([N+](=O)[O-])cn1; Dil = CC[C@H](C)[C@H](NC)[C@@H](CC(=O)O)OC; X16 = CN(C)C(=O)c1cnccc1SSC(C)(C)COC(=O)*; X4 = CC(C)(COC(=O)*)SSc1nc2ncnc(N)c2[nH]1; X10 = CC(C)(COC(=O)*)SSc1nc2ncncc2[nH]1; X13 = CC(C)(COC(=O)*)SSc1nc2cnccc2[nH]1; X17 = Cn1c(SSC(C)(C)COC(=O)*)nc2ccccc21; X19 = Cn1cc(C(=O)O)nc1SSC(C)(C)COC(=O)*; X7 = CC(C)(COC(=O)*)SSc1nc2ccccc2[nH]1; X8 = CC(C)(COC(=O)*)SSc1nc2nccnc2[nH]1; X2 = C[C@@H](N*)[C@@H](O)c1ccccc1; X21 = CC(C)(COC(=O)*)SSc1ncc[nH]1; X1 = Cn1nnnc1SSC(C)(C)COC(=O)*; X18 = CC(C)(COC(=O)*)SSC(=N)N; NMeV = CN[C@H](C(=O)O)C(C)C

Tests used:
[1] = target: T1, penetratin (AntP) peptide (Drosophila melanogaster, UniProt P02833); assay: Conjugation of activated disulfide-MMAE molecules to penetratin (AntP) peptide (% Product); conditions: peptide 25 uM, disulfide MMAE 5 equivalents, 75 mM Tris pH 8.5 and 10% DMF, ~16 hours at room temperature, UV peak area
T1 construct: C-terminal amide (CONH2); made in house; host or cells: chemical synthesis (Fmoc solid-phase peptide synthesis)
Method: In a second evaluation, MMAE was conjugated to penetratin (AntP) peptide. The AntP peptide, with sequence H2N-[…]-CONH2 (SEQ ID NO:1) bearing a free Cys thiol at the C-terminus, was synthesized via standard Fmoc solid-phase peptide synthesis methods. This peptide was conjugated at a concentration of 25 uM to disulfide MMAE molecules with varying leaving groups (5 equivalents) in a buffered solution composed of 75 mM Tris, pH 8.5 and 10% DMF for ˜16 hours at room temperature. Extent of the reaction was measured by dividing the integrated area for the UV peak of the MMAE-AntP conjugate by the sum of all peaks (“% Product”). The ideal value for % Product is 100%. The results are reported in table 31 below wherein the wavy line for the leaving group represent the point of attachment to the disulfide bond, and “AntP % P” refers to penetratin (AntP) peptide % product.

[2] = target: human serum albumin Cys-34 (Homo sapiens, UniProt P02768); assay: Conjugation of activated disulfide-MMAE molecules to human serum albumin (Conjugate Ratio, LC/MS); conditions: disulfide MMAE compound at 10 molar equivalents relative to HSA, 75 mM Tris pH 8.5, ~16 hours at room temperature
Chain of human serum albumin Cys-34 (P02768 25-609): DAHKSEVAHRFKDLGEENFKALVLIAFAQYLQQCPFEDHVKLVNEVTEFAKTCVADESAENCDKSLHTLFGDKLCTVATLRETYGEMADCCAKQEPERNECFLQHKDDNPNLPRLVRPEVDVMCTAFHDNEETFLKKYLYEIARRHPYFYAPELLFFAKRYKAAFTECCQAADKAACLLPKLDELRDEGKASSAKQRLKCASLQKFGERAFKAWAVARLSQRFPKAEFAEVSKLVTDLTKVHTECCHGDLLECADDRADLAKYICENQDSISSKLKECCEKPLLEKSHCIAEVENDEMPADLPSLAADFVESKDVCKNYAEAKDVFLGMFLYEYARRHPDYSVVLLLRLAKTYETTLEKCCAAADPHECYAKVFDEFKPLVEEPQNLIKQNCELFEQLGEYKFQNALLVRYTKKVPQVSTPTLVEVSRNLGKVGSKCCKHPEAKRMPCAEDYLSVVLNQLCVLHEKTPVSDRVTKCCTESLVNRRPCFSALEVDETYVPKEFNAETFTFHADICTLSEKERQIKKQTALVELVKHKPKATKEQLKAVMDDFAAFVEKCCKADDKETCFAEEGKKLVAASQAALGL
Method: In a first evaluation, MMAE was conjugated to human serum albumin (HSA). […] This Cys residue is blocked as a mixed disulfide with Cys or glutathione, preventing complete conjugation of other molecules to this residue. […] Conjugate reactions were analyzed by LC/MS. The extent of the expected MMAE-HSA conjugate formed during the reaction is represented by the “Conjugate Ratio”, measured by dividing the abundance of the MS peak for the MMAE-HSA conjugate by the sum total abundance of all peaks observed. The ideal value for the Conjugate Ratio is 1.0. The results are reported in table 31 below wherein the wavy line for the leaving group represents the point of attachment to the disulfide bond, and “HSA CR” refers to human serum albumin conjugate ratio.

[3] = In vitro disulfide cleavage and immolation by incubation with cysteine or glutathione (LC/MS); type: physicochemical; conditions: pH 7.0, 37° C.
Method: In a first phase of the experiment, disulfide cleavage and immolation by incubation with cysteine and glutathione—with the thiol concentrations mimic those in plasma and cancer cells—was investigated using unconjugated small molecule model systems with para-nitro-pyridyl disulfide-containing linker drug analogs 1, 2 and 11 below. In particular, cleavage and immolation was evaluated in vitro by incubation at […] with cysteine ([…] or 200 μM) or glutathione (GSH, 4 mM) in 100 mM Tris buffer pH 7.0 containing 5% methanol at 37° C. Aliquots were taken at specified time points and the samples were analyzed by LC/MS on Sciex TripleTOF 5600 on a Hypersil Gold C18 column (100×2.1, […], Thermo Scientific). The column was eluted by a gradient of buffer A (0.1% formic acid in 10 mM ammonium acetate) to buffer B (0.1% formic acid in 10 mM ammonium acetate in 90% acetonitrile), 5% B 0-0.5 min, 5-25% B 0.5-8 min, 25-75% B 8-13 min, and 75-95% B 13-13.5 min, 95% B 13.5-14.5 min, 95-5% B 14.5-15 min at 0.4 mL/min. Under these conditions, para-nitropyridyl thiol was eluted at 5.3 min. All products (compounds 1, 2, 11, 3a, 3b, 4a, 4b, 12a, 12 b, 6, 7, 13 and 8) were separated and characterized by LC/MS/MS in a positive ESI ion mode. All analytes had the protonated molecular MH^+ as the major species with little source fragmentation. Full scan accurate mass peak areas were used to estimate relative abundance of each component and the disappearance of 1, 2, and 11 estimated relative full scan peak areas was consistent with that estimated based on the relative abundance compared to time 0 by MS or UV. The results are reported in Table 15 below and the analytical results are presented in Table 16 below where “Cmpd” refers to compound, “RT” refers to retention time in minutes, and “Calc. Mass” refers to calculated mass. The relative abundance of disulfide cleavage and immolation products over time were evaluated and are disclosed in FIGS. 12A to 12C, 13A to 13C, 14A to 14C and 15A to 15C where the products were monitored by LC/MS from incubations of linker drugs 1, 2, and 11 at pH 7.0 and 37° C. in the presence of: 0.2 mM cysteine (FIGS. 12A, 12B and 12C); 0.03 mM cysteine (FIGS. 13A, 13B and 13C); 4 mM glutathione (FIGS. 14A, 14B and 14C); and 0.03 mM glutathione (FIGS. 15A, 15B and 15C). In FIGS. 12A to 12C, 13A to 13C, 14A to 14C and 15A to 15C, compound reference numbers 1, 2, 3a, 3b, 4a, 4b, 6, 7, 8, 11, 12a, 12b and 13 correspond to the structures below.

Structure (SMILES) | AntP % P (penetratin (AntP) peptide % product) [1] | HAS CR (HSA Conjugation Ratio) [2] | also measured
CC[C@H](C)[C@@H]([C@@H](CC(=O)N1CCC[C@H]1[C@H](OC)[C@@H](C)C(=O)N[C@H](C)[C@@H](O)c1ccccc1)OC)N(C)C(=O)[C@@H](NC(=O)[C@H](C(C)C)N(C)C(=O)OCC(C)(C)SSc1nc2ncnc(N)c2[nH]1)C(C)C (X4-[NMeV]V[Dil][Dolaproine]-X2) | 21% | 0.23 | –
CC[C@H](C)[C@@H]([C@@H](CC(=O)N1CCC[C@H]1[C@H](OC)[C@@H](C)C(=O)N[C@H](C)[C@@H](O)c1ccccc1)OC)N(C)C(=O)[C@@H](NC(=O)[C@H](C(C)C)N(C)C(=O)OCC(C)(C)SSc1ccncc1C(=O)N(C)C)C(C)C (X16-[NMeV]V[Dil][Dolaproine]-X2) | 51% | 0.22 | –
CC[C@H](C)[C@@H]([C@@H](CC(=O)N1CCC[C@H]1[C@H](OC)[C@@H](C)C(=O)N[C@H](C)[C@@H](O)c1ccccc1)OC)N(C)C(=O)[C@@H](NC(=O)[C@H](C(C)C)N(C)C(=O)OCC(C)(C)SSc1nc(C(=O)O)cn1C)C(C)C (X19-[NMeV]V[Dil][Dolaproine]-X2) | 4.9% | 0.38 | –
CC[C@H](C)[C@@H]([C@@H](CC(=O)N1CCC[C@H]1[C@H](OC)[C@@H](C)C(=O)N[C@H](C)[C@@H](O)c1ccccc1)OC)N(C)C(=O)[C@@H](NC(=O)[C@H](C(C)C)N(C)C(=O)OCC(C)(C)SSc1ncc[nH]1)C(C)C (X21-[NMeV]V[Dil][Dolaproine]-X2) | 1.7% | 0.99 | –
CC[C@H](C)[C@@H]([C@@H](CC(=O)N1CCC[C@H]1[C@H](OC)[C@@H](C)C(=O)N[C@H](C)[C@@H](O)c1ccccc1)OC)N(C)C(=O)[C@@H](NC(=O)[C@H](C(C)C)N(C)C(=O)OCC(C)(C)SSC(=N)N)C(C)C (X18-[NMeV]V[Dil][Dolaproine]-X2) | 90% | 0.98 | –
CC[C@H](C)[C@@H]([C@@H](CC(=O)N1CCC[C@H]1[C@H](OC)[C@@H](C)C(=O)N[C@H](C)[C@@H](O)c1ccccc1)OC)N(C)C(=O)[C@@H](NC(=O)[C@H](C(C)C)N(C)C(=O)OCC(C)(C)SSc1nc2cccc(C(=O)O)c2[nH]1)C(C)C (X22-[NMeV]V[Dil][Dolaproine]-X2) | 25% | 0.34 | –
CC[C@H](C)[C@@H]([C@@H](CC(=O)N1CCC[C@H]1[C@H](OC)[C@@H](C)C(=O)N[C@H](C)[C@@H](O)c1ccccc1)OC)N(C)C(=O)[C@@H](NC(=O)[C@H](C(C)C)N(C)C(=O)OCC(C)(C)SSc1nc2cnccc2[nH]1)C(C)C (X13-[NMeV]V[Dil][Dolaproine]-X2) | 26% | 0.86 | –
CC[C@H](C)[C@@H]([C@@H](CC(=O)N1CCC[C@H]1[C@H](OC)[C@@H](C)C(=O)N[C@H](C)[C@@H](O)c1ccccc1)OC)N(C)C(=O)[C@@H](NC(=O)[C@H](C(C)C)N(C)C(=O)OCC(C)(C)SSc1nc2ccc(C(=O)O)cc2[nH]1)C(C)C (X11-[NMeV]V[Dil][Dolaproine]-X2) | 20% | 0.64 | –
CC[C@H](C)[C@@H]([C@@H](CC(=O)N1CCC[C@H]1[C@H](OC)[C@@H](C)C(=O)N[C@H](C)[C@@H](O)c1ccccc1)OC)N(C)C(=O)[C@@H](NC(=O)[C@H](C(C)C)N(C)C(=O)OCC(C)(C)SSc1nc2ncncc2[nH]1)C(C)C (X10-[NMeV]V[Dil][Dolaproine]-X2) | 34% | 0.6 | –
CC[C@H](C)[C@@H]([C@@H](CC(=O)N1CCC[C@H]1[C@H](OC)[C@@H](C)C(=O)N[C@H](C)[C@@H](O)c1ccccc1)OC)N(C)C(=O)[C@@H](NC(=O)[C@H](C(C)C)N(C)C(=O)OCC(C)(C)SSc1nc2ccccc2[nH]1)C(C)C (X7-[NMeV]V[Dil][Dolaproine]-X2) | 18% | 0.52 | –
CC[C@H](C)[C@@H]([C@@H](CC(=O)N1CCC[C@H]1[C@H](OC)[C@@H](C)C(=O)N[C@H](C)[C@@H](O)c1ccccc1)OC)N(C)C(=O)[C@@H](NC(=O)[C@H](C(C)C)N(C)C(=O)OCC(C)(C)SSc1nc2nccnc2[nH]1)C(C)C (X8-[NMeV]V[Dil][Dolaproine]-X2) | 36% | 0.63 | –
CC[C@H](C)[C@@H]([C@@H](CC(=O)N1CCC[C@H]1[C@H](OC)[C@@H](C)C(=O)N[C@H](C)[C@@H](O)c1ccccc1)OC)N(C)C(=O)[C@@H](NC(=O)[C@H](C(C)C)N(C)C(=O)OCC(C)(C)SSc1nc2c([N+](=O)[O-])cccc2[nH]1)C(C)C (X6-[NMeV]V[Dil][Dolaproine]-X2) | 26% | 0.65 | –
CC[C@H](C)[C@@H]([C@@H](CC(=O)N1CCC[C@H]1[C@H](OC)[C@@H](C)C(=O)N[C@H](C)[C@@H](O)c1ccccc1)OC)N(C)C(=O)[C@@H](NC(=O)[C@H](C(C)C)N(C)C(=O)OCC(C)(C)SSc1ccc([N+](=O)[O-])cn1)C(C)C (X3-[NMeV]V[Dil][Dolaproine]-X2) | 14% | 0.11 | –
CC[C@H](C)[C@@H]([C@@H](CC(=O)N1CCC[C@H]1[C@H](OC)[C@@H](C)C(=O)N[C@H](C)[C@@H](O)c1ccccc1)OC)N(C)C(=O)[C@@H](NC(=O)[C@H](C(C)C)N(C)C(=O)OCC(C)(C)SSc1nc2ccccc2n1C)C(C)C (X17-[NMeV]V[Dil][Dolaproine]-X2) | 7.5% | 0.87 | –
CC[C@H](C)[C@@H]([C@@H](CC(=O)N1CCC[C@H]1[C@H](OC)[C@@H](C)C(=O)N[C@H](C)[C@@H](O)c1ccccc1)OC)N(C)C(=O)[C@@H](NC(=O)[C@H](C(C)C)N(C)C(=O)OCC(C)(C)SSc1nnnn1C)C(C)C (X1-[NMeV]V[Dil][Dolaproine]-X2) | 32% | 0.86 | –
CC[C@H](C)[C@@H]([C@@H](CC(=O)N1CCC[C@H]1[C@H](OC)[C@@H](C)C(=O)N[C@H](C)[C@@H](O)c1ccccc1)OC)N(C)C(=O)[C@@H](NC(=O)[C@H](C(C)C)N(C)C(=O)OCC(C)(C)SSc1nc2cc([N+](=O)[O-])ccc2[nH]1)C(C)C (X14-[NMeV]V[Dil][Dolaproine]-X2) | 26% | 0.69 | –
C=C1CC2C=Nc3cc(OCCCCCOc4cc5c(cc4OC)C(=O)N4CC(=C)CC4C(O)N5C(=O)OCC(C)SSCC(N)C(=O)O)c(OC)cc3C(=O)N2C1 (centres unmarked) [Compound 3a] | – | – | Percentage of all products ([3]; 30 μM cysteine, 1 h): 80.1%; Percentage of all products ([3]; 30 μM cysteine, 4 h): 79.9%; Percentage of all products ([3]; 30 μM cysteine, 24 h): 75.0%; Percentage of all products ([3]; 200 μM cysteine, 1 h): 5.6%; Percentage of all products ([3]; 200 μM cysteine, 4 h): 1.9%; Percentage of all products ([3]; 200 μM cysteine, 24 h): 0%
